Source: patent US20250145601A1, “NOVEL BICYCLIC COMPOUNDS AS RAD51 INHIBITORS” (SATYA THERAPEUTICS, INC., priority 2022, published 2025)

System: MDA MB 231 cells
Assay: Antiproliferation assay in MDA MB 231 cells (Cell Titer Glo)
Assay type: cell-based
Conditions: Homo sapiens, MDA-MB-231, 216 h, MDAMB231 cell line, 9 day treatment, racemic compounds (Table 2)
Description: Antiproliferation Assay in MDA MB 231 Cells MDA MB 231 cells were seeded in 96 well plate at a seeding density of 250 cells/well. The cells were allowed to settle overnight under standard incubator conditions (37° C., 5% CO2). Next day treatment with increasing dose of test compounds and reference compounds were done to the respective wells and the cells were further incubated under standard cell culture conditions for another 4 days. On the 5th day, media was replenished with fresh treatment and cells were incubated for a total of 9 day treatment period. On the day of termination, appropriate volume of Cell Titer Glo reagent was added to the treatment (and control) wells and the plates were kept on a plate shaker @300 RPM for 15 min. Luminiscence reading (RLU) was […] RLU is directly proportional to ATP content and is directly related to number of metabolically active cells in the respective well. Calculation: a. Blank Correction: RLU of the Wells Containing No Cells is Considered as Blank and Subtracted from all RLU of the Treated and Control Wells [formula]

SMILES | inhibition at 10 µM [%]
CCC(=O)N1N=C(c2c(C)c3ccsc3[nH]c2=O)CC1c1ccc(CC)cc1 (stereo not drawn) [Example 44, 5-(5-(4-ethylphenyl)-1-propionyl-4,5-dihydro-1H-pyrazol-3-yl)-4-methylthieno[2,3-b]pyridin-6(7H)-one] | ≥ 50
CCC(=O)N1N=C(c2c(C)c3ccsc3[nH]c2=O)CC1c1ccc(N2CCCC2)cc1 (stereo not drawn) [Example 46, 4-methyl-5-(1-propionyl-5-(4-(pyrrolidin-1-yl)phenyl)-4,5-dihydro-1H-pyrazol-3-yl)thieno[2,3-b]pyridin-6(7H)-one] | ≥ 50
CCC(=O)N1N=C(c2c(C)c3ccsc3[nH]c2=O)CC1c1ccc(C2CC2)cc1 (stereo not drawn) [Example 47, 5-(5-(4-cyclopropylphenyl)-1-propionyl-4,5-dihydro-1H-pyrazol-3-yl)-4-methylthieno[2,3-b]pyridin-6(7H)-one] | < 50
CCC(=O)N1N=C(c2c(C)c3ccsc3[nH]c2=O)CC1c1csc(C)n1 (stereo not drawn) [Example 48, 4-methyl-5-(5-(2-methylthiazol-4-yl)-1-propionyl-4,5-dihydro-1H-pyrazol-3-yl)thieno[2,3-b]pyridin-6(7H)-one] | < 50
CCC(=O)N1N=C(c2c(C)c3ccsc3[nH]c2=O)CC1c1ccc(C(C)C)cc1 (stereo not drawn) [Example 49, 5-(5-(4-isopropylphenyl)-1-propionyl-4,5-dihydro-1H-pyrazol-3-yl)-4-methylthieno[2,3-b]pyridin-6(7H)-one] | < 50
CCC(=O)N1N=C(c2c(C)c3ccsc3[nH]c2=O)CC1c1cnc(C)cc1C (stereo not drawn) [Example 50, 5-(5-(4,6-dimethylpyridin-3-yl)-1-propionyl-4,5-dihydro-1H-pyrazol-3-yl)-4-methylthieno[2,3-b]pyridin-6(7H)-one] | < 50
CCC(=O)N1N=C(c2c(C)c3ccsc3[nH]c2=O)CC1c1cnc(C)nc1 (stereo not drawn) [Example 51, 4-methyl-5-(5-(2-methylpyrimidin-5-yl)-1-propionyl-4,5-dihydro-1H-pyrazol-3-yl)thieno[2,3-b]pyridin-6(7H)-one] | < 50
CCC(=O)N1N=C(c2c(C)c3ccsc3[nH]c2=O)CC1c1cnc(C)c(Cl)c1 (stereo not drawn) [Example 52, 5-(5-(5-chloro-6-methylpyridin-3-yl)-1-propionyl-4,5-dihydro-1H-pyrazol-3-yl)-4-methylthieno[2,3-b]pyridin-6(7H)-one] | ≥ 50
CCC(=O)N1N=C(c2c(C)c3ccsc3[nH]c2=O)CC1c1cnc(C)cc1OC (stereo not drawn) [Example 53, 5-(5-(4-methoxy-6-methylpyridin-3-yl)-1-propionyl-4,5-dihydro-1H-pyrazol-3-yl)-4-methylthieno[2,3-b]pyridin-6(7H)-one] | < 50
CCC(=O)N1N=C(c2c(C)c3ccsc3[nH]c2=O)CC1c1cnc(C)c(C)c1 (stereo not drawn) [Example 54, 5-(5-(5,6-dimethylpyridin-3-yl)-1-propionyl-4,5-dihydro-1H-pyrazol-3-yl)-4-methylthieno[2,3-b]pyridin-6(7H)-one] | ≥ 50
CCC(=O)N1N=C(c2c(C)c3ccsc3[nH]c2=O)CC1c1cnc(C)c(F)c1 (stereo not drawn) [Example 55, 5-(5-(5-fluoro-6-methylpyridin-3-yl)-1-propionyl-4,5-dihydro-1H-pyrazol-3-yl)-4-methylthieno[2,3-b]pyridin-6(7H)-one] | ≥ 50
CCC(=O)N1N=C(c2c(C)c3ccsc3[nH]c2=O)CC1c1cnc(C)cc1Cl (stereo not drawn) [Example 56, 5-(5-(4-chloro-6-methylpyridin-3-yl)-1-propionyl-4,5-dihydro-1H-pyrazol-3-yl)-4-methylthieno[2,3-b]pyridin-6(7H)-one] | ≥ 50
CCC(=O)N1N=C(c2c(C)c3ccsc3[nH]c2=O)CC1c1cnc(C)s1 (stereo not drawn) [Example 57, 4-methyl-5-(5-(2-methylthiazol-5-yl)-1-propionyl-4,5-dihydro-1H-pyrazol-3-yl)thieno[2,3-b]pyridin-6(7H)-one] | ≥ 50
CCC(=O)N1N=C(c2c(C)c3ccsc3[nH]c2=O)CC1C1CCCCC1 (stereo not drawn) [Example 58, 5-(5-cyclohexyl-1-propionyl-4,5-dihydro-1H-pyrazol-3-yl)-4-methylthieno[2,3-b]pyridin-6(7H)-one] | < 50
CCC(=O)N1N=C(c2c(C)c3cc(Cl)ccc3[nH]c2=O)CC1c1ccc(C)cc1 (stereo not drawn) [Example 59, 6-chloro-4-methyl-3-(1-propionyl-5-(p-tolyl)-4,5-dihydro-1H-pyrazol-3-yl)quinolin-2(1H)-one] | ≥ 50
CCC(=O)N1N=C(c2c(C)c3nc(Cl)ccc3[nH]c2=O)CC1c1ccc(C)cc1 (stereo not drawn) [Example 61, 6-chloro-4-methyl-3-(1-propionyl-5-(p-tolyl)-4,5-dihydro-1H-pyrazol-3-yl)-1,5-naphthyridin-2(1H)-one] | ≥ 50
CC(=O)N1N=C(c2c(C)c3ccsc3[nH]c2=O)CC1c1ccc(C)cc1 (stereo not drawn) [Example 62, 5-(1-acetyl-5-(p-tolyl)-4,5-dihydro-1H-pyrazol-3-yl)-4-methyl-7,7a-dihydrothieno[2,3-b]pyridin-6(7H)-one] | ≥ 50

SMILES | inhibition at 10 µM [%]
Cc1ccc(C2CC(c3c(C)c4ccsc4[nH]c3=O)=NN2C(=O)C(C)C)cc1 (stereo not drawn) [Example 63, 5-(1-isobutyryl-5-(p-tolyl)-4,5-dihydro-1H-pyrazol-3-yl)-4-methyl-7,7a-dihydrothieno[2,3-b]pyridin-6(7H)-one] | ≥ 50
Cc1ccc(C2CC(c3c(C)c4ccsc4[nH]c3=O)=NN2C(=O)C(F)(F)F)cc1 (stereo not drawn) [Example 64, 4-methyl-5-(5-(p-tolyl)-1-(2,2,2-trifluoroacetyl)-4,5-dihydro-1H-pyrazol-3-yl)-7,7a-dihydrothieno[2,3-b]pyridin-6(7H)-one] | ≥ 50
CCC(=O)N1N=C(c2c(C)c3ccsc3[nH]c2=O)CC1c1ccc(C)cc1Cl (stereo not drawn) [Example 65, 5-(5-(2-chloro-4-methylphenyl)-1-propionyl-4,5-dihydro-1H-pyrazol-3-yl)-4-methylthieno[2,3-b]pyridin-6(7H)-one] | ≥ 50
CCC(=O)N1N=C(c2c(C)c3cc(Cl)cnc3[nH]c2=O)CC1c1ccc(C)cc1 (stereo not drawn) [Example 67, 6-chloro-4-methyl-3-(1-propionyl-5-(p-tolyl)-4,5-dihydro-1H-pyrazol-3-yl)-1,8-naphthyridin-2(1H)-one] | < 50
CCC(=O)N1N=C(c2c(C)c3ccsc3[nH]c2=O)CC1c1ccc(CF)cc1 (stereo not drawn) [Example 68, 5-(5-(4-(fluoromethyl)phenyl)-1-propionyl-4,5-dihydro-1H-pyrazol-3-yl)-4-methylthieno[2,3-b]pyridin-6(7H)-one] | ≥ 50
CCC(=O)N1N=C(c2c(C)c3ncccc3[nH]c2=O)CC1c1ccc(C)cc1 (stereo not drawn) [Example 69, 4-methyl-3-(1-propionyl-5-(p-tolyl)-4,5-dihydro-1H-pyrazol-3-yl)-1,5-naphthyridin-2(1H)-one] | ≥ 50
CCC(=O)N1N=C(c2c(C)c3ccsc3[nH]c2=O)CC1Cc1ccccc1 (stereo not drawn) [Example 71, 5-(5-benzyl-1-propionyl-4,5-dihydro-1H-pyrazol-3-yl)-4-methylthieno[2,3-b]pyridin-6(7H)-one] | ≥ 50
CCC(=O)N1N=C(c2c(C)c3cc(Cl)sc3[nH]c2=O)CC1c1ccc(C)cc1 (stereo not drawn) [Example 72, 2-chloro-4-methyl-5-(1-propionyl-5-(p-tolyl)-4,5-dihydro-1H-pyrazol-3-yl)thieno[2,3-b]pyridin-6(7H)-one] | ≥ 50
CCC(=O)N1N=C(c2c(C)c3cccnc3[nH]c2=O)CC1c1ccc(C)cc1 (stereo not drawn) [Example 73, 4-methyl-3-(1-propionyl-5-(p-tolyl)-4,5-dihydro-1H-pyrazol-3-yl)-1,8-naphthyridin-2(1H)-one] | ≥ 50
CCC(=O)N1N=C(c2c(C)c3ccc(C)cc3[nH]c2=O)CC1c1ccc(C)cc1 (stereo not drawn) [Example 75, 4,7-dimethyl-3-(1-propionyl-5-(p-tolyl)-4,5-dihydro-1H-pyrazol-3-yl)quinolin-2(1H)-one] | ≥ 50
CCC(=O)N1N=C(c2c(C)c3c(C)cccc3[nH]c2=O)CC1c1ccc(C)cc1 (stereo not drawn) [Example 76, 4,5-dimethyl-3-(1-propionyl-5-(p-tolyl)-4,5-dihydro-1H-pyrazol-3-yl)quinolin-2(1H)-one] | ≥ 50
CCC(=O)N1N=C(c2c(C)c3ccc(N4CCOCC4)cc3[nH]c2=O)CC1c1ccc(C)cc1 (stereo not drawn) [Example 77, 4-methyl-7-morpholino-3-(1-propionyl-5-(p-tolyl)-4,5-dihydro-1H-pyrazol-3-yl)quinolin-2(1H)-one] | ≥ 50
CCC(=O)N1N=C(c2c(C)c3cc(Cl)ncc3[nH]c2=O)CC1c1ccc(C)cc1 (stereo not drawn) [Example 79, 6-chloro-4-methyl-3-(1-propionyl-5-(p-tolyl)-4,5-dihydro-1H-pyrazol-3-yl)-1,7-naphthyridin-2(1H)-one] | ≥ 50
CCC(=O)N1N=C(c2c(C)c3cc(C)ncc3[nH]c2=O)CC1c1ccc(C)cc1 (stereo not drawn) [Example 81, 4,6-dimethyl-3-(1-propionyl-5-(p-tolyl)-4,5-dihydro-1H-pyrazol-3-yl)-1,7-naphthyridin-2(1H)-one] | < 50
CCC(=O)N1N=C(c2c(C)c3ccc(F)cc3[nH]c2=O)CC1c1ccc(C)cc1 (stereo not drawn) [Example 83, 7-fluoro-4-methyl-3-(1-propionyl-5-(p-tolyl)-4,5-dihydro-1H-pyrazol-3-yl)quinolin-2(1H)-one] | ≥ 50
CCC(=O)N1N=C(c2c(C)c3ccc(C)nc3[nH]c2=O)CC1c1ccc(C)cc1 (stereo not drawn) [Example 84, 4,7-dimethyl-3-(1-propionyl-5-(p-tolyl)-4,5-dihydro-1H-pyrazol-3-yl)-1,8-naphthyridin-2(1H)-one] | ≥ 50
